{"source": "patent US20140329844A1", "about": "“METHOD OF RESTORING THE INCRETIN EFFECT” (NEURENDO PHARMA, LLC, priority 2006, published 2014)", "key": {"[1]": {"experiment": "Daily blood glucose profile of a subject with early stage Type 2 diabetes during GNTI administration", "type": "in vivo", "conditions": "human; for Average blood glucose by day of week / Readings In Target, 65-155 (as %) / Readings Lows, 51-64 (as %): GNTI once weekly", "procedure": "The daily blood glucose profile of a subject with early stage, [non-insulin dependent] Type 2 diabetes was monitored during extended periods of administration of guanidinylated naltrindole (GNTI).\nA weekly dose of about 70 ng/kg was administered.\nFIGS. 1-3 illustrate the blood glucose readings over an extended period of time, a modal week and a modal day. The target blood glucose range was 65-155 mg/dL. Table 3 illustrates that 98% of the readings were within the target range. The other 2% of the readings fell below the target range and fell between 51-64 mg/dL.\nFIGS. 1-3 illustrate the subject's blood glucose readings over an extended period of time, a modal week, and a modal day. Accordingly, 227 blood glucose readings were taken, averaging 92 mg/dL over a 15 day period. 98% of all readings were between 65 and 127 mg/dL, and 2% between […], representing a very narrow overall spread."}, "[2]": {"experiment": "Weight (BMI) of the subject with early stage Type 2 diabetes during GNTI administration", "type": "in vivo", "conditions": "human, extended periods of GNTI administration", "text": "The weight of the subject with early stage Type 2 diabetes mellitus was also monitored during extended periods of administration on GNTI, decreasing from, a baseline body mass index (BMI) of 25 to an average BMI of 22.8, corresponding to a reduction by about 9%."}, "[3]": {"experiment": "Blood glucose, HDL-C and triglycerides in rhesus monkeys after an oral dose of GNTI", "type": "in vivo, rhesus monkey", "procedure": "A cohort of rhesus monkeys having progressively increasing degrees of impaired glucose tolerance were monitored following an oral dose of GNTI of 86 ng/kg of body weight. Baseline readings of blood glucose (BC), high density lipoprotein C (HDL-C) and triglycerides (TO) were taken on Day 0.\nThe effect of GNTI was most readily seen in the change of blood glucose and blood lipid levels. […] The other 4 subjects of the cohort, i.e., r98060, r96027, r00072, r01078, had baseline blood glucose levels ranging from 71-81 and were considered to have impaired glucose tolerance."}, "[4]": {"conditions": "GNTI about 70 ng/kg weekly, Early AM 00:00-04:59"}, "[5]": {"conditions": "GNTI about 70 ng/kg weekly, Evening 15:00-18:59"}, "[6]": {"conditions": "GNTI about 70 ng/kg weekly, Midday 11:00-14:59"}, "[7]": {"conditions": "GNTI about 70 ng/kg weekly, Morning 05:00-10:59"}, "[8]": {"conditions": "GNTI about 70 ng/kg weekly, Night 19:00-23:59"}, "[9]": {"conditions": "GNTI about 70 ng/kg weekly, all readings, 15 day period"}, "[10]": {"conditions": "GNTI about 70 ng/kg weekly, of 227 readings"}, "[11]": {"conditions": "GNTI about 70 ng/kg weekly, overall"}, "[12]": {"conditions": "early stage Type 2 diabetes, GNTI about 70 ng/kg weekly, 15 days"}, "[13]": {"conditions": "four dyslipidemic rhesus monkeys, day 8, oral GNTI 86 ng/kg"}, "[14]": {"conditions": "rhesus monkeys, individual animals, Day 8 after oral GNTI 86 ng/kg on Day 0"}}, "note": "“And” between values parts separate entries of the source, which are not always exact repeats. Equal entries are not always repeated."}
{"smiles": "NC(N)=Nc1ccc2[nH]c3c(c2c1)C[C@@]1(O)[C@H]2Cc4ccc(O)c5c4[C@@]1(CCN2CC1CC1)[C@H]3O5", "note": "[GNTI, guanidinylated naltrindole]", "values": [{"measurement": "Average blood glucose", "setting": "[1]; [4]", "result": 79, "unit": "mg/dL"}, {"measurement": "Readings In Target, 65-155 mg/dL", "setting": "[1]; [4]", "result": 100, "unit": "%"}, {"measurement": "Average blood glucose", "setting": "[1]; [5]", "result": 91, "unit": "mg/dL"}, {"measurement": "Readings In Target, 65-155 mg/dL", "setting": "[1]; [5]", "result": 100, "unit": "%"}, {"measurement": "Average blood glucose", "setting": "[1]; [6]", "result": 92, "unit": "mg/dL"}, {"measurement": "Readings In Target, 65-155 mg/dL", "setting": "[1]; [6]", "result": 98, "unit": "%"}, {"measurement": "Readings Lows, 51-64 mg/dL", "setting": "[1]; [6]", "result": 2, "unit": "%"}, {"measurement": "Average blood glucose", "setting": "[1]; [7]", "result": 90, "unit": "mg/dL"}, {"measurement": "Readings In Target, 65-155 mg/dL", "setting": "[1]; [7]", "result": 97, "unit": "%"}, {"measurement": "Readings Lows, 51-64 mg/dL", "setting": "[1]; [7]", "result": 3, "unit": "%"}, {"measurement": "Average blood glucose", "setting": "[1]; [8]", "result": 95, "unit": "mg/dL"}, {"measurement": "Readings In Target, 65-155 mg/dL", "setting": "[1]; [8]", "result": 97, "unit": "%"}, {"measurement": "Readings Lows, 51-64 mg/dL", "setting": "[1]; [8]", "result": 3, "unit": "%"}, {"measurement": "Readings between 61 and 65 mg/dL", "setting": "[1]; [9]", "result": 2, "unit": "%"}, {"measurement": "Readings between 65 and 127 mg/dL", "setting": "[1]; [9]", "result": 98, "unit": "%"}, {"measurement": "Number of readings High (156-300 mg/dL)", "setting": "[1]; [10]", "result": 0}, {"measurement": "Number of readings Low (51-64 mg/dL)", "setting": "[1]; [10]", "result": 5}, {"measurement": "Number of readings Target (65-155 mg/dL)", "setting": "[1]; [10]", "result": 222}, {"measurement": "Number of readings Very High (301-601 mg/dL)", "setting": "[1]; [10]", "result": 0}, {"measurement": "Number of readings Very Low (0-50 mg/dL)", "setting": "[1]; [10]", "result": 0}, {"measurement": "Percent of readings High (156-300 mg/dL)", "setting": "[1]; [11]", "result": 0, "unit": "%"}, {"measurement": "Percent of readings Very High (301-601 mg/dL)", "setting": "[1]; [11]", "result": 0, "unit": "%"}, {"measurement": "Percent of readings Very Low (0-50 mg/dL)", "setting": "[1]; [11]", "result": 0, "unit": "%"}, {"measurement": "Readings In Target, 65-155 mg/dL", "setting": "[1]; [11]", "result": 98, "unit": "%"}, {"measurement": "Readings Lows, 51-64 mg/dL", "setting": "[1]; [11]", "result": 2, "unit": "%"}, {"measurement": "Readings in the hypoglycemic range", "setting": "[1]; GNTI about 70 ng/kg weekly, readings below target range", "result": "none of these readings were in the hypoglycemic range"}, {"measurement": "Average blood glucose by day of week", "setting": "[1]; Fri", "result": 96, "unit": "mg/dL"}, {"measurement": "Readings In Target, 65-155 (as %)", "setting": "[1]; Fri", "result": 100, "unit": "%"}, {"measurement": "Average blood glucose by day of week", "setting": "[1]; Mon", "result": 92, "unit": "mg/dL"}, {"measurement": "Readings In Target, 65-155 (as %)", "setting": "[1]; Mon", "result": 100, "unit": "%"}, {"measurement": "Average blood glucose by day of week", "setting": "[1]; Sat", "result": 92, "unit": "mg/dL"}, {"measurement": "Readings In Target, 65-155 (as %)", "setting": "[1]; Sat", "result": 100, "unit": "%"}, {"measurement": "Average blood glucose by day of week", "setting": "[1]; Sun", "result": 92, "unit": "mg/dL"}, {"measurement": "Readings In Target, 65-155 (as %)", "setting": "[1]; Sun", "result": 100, "unit": "%"}, {"measurement": "Average blood glucose by day of week", "setting": "[1]; Thur", "result": 94, "unit": "mg/dL"}, {"measurement": "Readings In Target, 65-155 (as %)", "setting": "[1]; Thur", "result": 100, "unit": "%"}, {"measurement": "Average blood glucose by day of week", "setting": "[1]; Tue", "result": 87, "unit": "mg/dL"}, {"measurement": "Readings In Target, 65-155 (as %)", "setting": "[1]; Tue", "result": 87, "unit": "%"}, {"measurement": "Readings Lows, 51-64 (as %)", "setting": "[1]; Tue", "result": 13, "unit": "%"}, {"measurement": "Average blood glucose by day of week", "setting": "[1]; Wed", "result": 88, "unit": "mg/dL"}, {"measurement": "Readings In Target, 65-155 (as %)", "setting": "[1]; Wed", "result": 93, "unit": "%"}, {"measurement": "Readings Lows, 51-64 (as %)", "setting": "[1]; Wed", "result": 7, "unit": "%"}, {"measurement": "Average blood glucose by day of week", "setting": "[1]; Weekdays", "result": 92, "unit": "mg/dL"}, {"measurement": "Readings In Target, 65-155 (as %)", "setting": "[1]; Weekdays", "result": 97, "unit": "%"}, {"measurement": "Readings Lows, 51-64 (as %)", "setting": "[1]; Weekdays", "result": 3, "unit": "%"}, {"measurement": "Average blood glucose by day of week", "setting": "[1]; Weekends", "result": 92, "unit": "mg/dL"}, {"measurement": "Readings In Target, 65-155 (as %)", "setting": "[1]; Weekends", "result": 100, "unit": "%"}, {"measurement": "Highest Blood Glucose", "setting": "[1]; [12]", "result": 127, "unit": "mg/dL"}, {"measurement": "Lowest Blood Glucose", "setting": "[1]; [12]", "result": 61, "unit": "mg/dL"}, {"measurement": "Average blood glucose", "setting": "[1]; early stage Type 2 diabetes, GNTI about 70 ng/kg weekly, overall, 15 days, 227 readings", "result": 92, "unit": "mg/dL"}, {"measurement": "Maintenance of blood glucose levels within the target range", "setting": "[1]; once weekly administration, target 65-155 mg/dL", "result": "aided in maintaining blood glucose levels within the target range"}, {"measurement": "Reduction of BMI from baseline", "setting": "[2]", "result": "about 9%"}, {"measurement": "Average body mass index (BMI)", "setting": "[2]; baseline BMI 25", "result": 22.8}, {"measurement": "Decrease in blood glucose, average", "setting": "[3]; 4 rhesus monkeys having impaired glucose tolerance, day 8, oral GNTI 86 ng/kg", "result": 26, "unit": "%"}, {"measurement": "HDL-C increase, average", "setting": "[3]; [13]", "result": 23, "unit": "%"}, {"measurement": "HDL-C increase, range", "setting": "[3]; [13]", "result": "10-31%"}, {"measurement": "Decrease in blood glucose levels", "setting": "[3]; glucose normal rhesus monkey r89163, day 8, oral GNTI 86 ng/kg", "result": 3, "unit": "%"}, {"measurement": "Increase in HDL-C lipid levels", "setting": "[3]; lipid normal rhesus monkey r98068, day 8, oral GNTI 86 ng/kg", "result": 5, "unit": "%"}, {"measurement": "BG", "setting": "[3]; [14]", "result": "51 mg/dL and 53 mg/dL and 67 mg/dL and 56 mg/dL and 63 mg/dL"}, {"measurement": "HDL-C", "setting": "[3]; [14]", "result": "85 mg/dL and 46 mg/dL and 61 mg/dL and 63 mg/dL and 84 mg/dL"}, {"measurement": "TG", "setting": "[3]; [14]", "result": "<45 mg/dL (3×) and 89 mg/dL and 60 mg/dL"}, {"measurement": "BG Change", "setting": "[3]; rhesus monkeys, individual animals, Day 8 vs Baseline, oral GNTI 86 ng/kg", "result": "(−3%)"}]}
